Key:
α4β1 = biological target: T1, α4β1 (Homo sapiens, UniProt P05556+P13612); test: Jurkat-CS-1 assay; format: cell-based; details: Jurkat cell adhesion to immobilized CS-1 derived peptide
T1 construct: 100 µl of Jurkat cells (2.5 x 10^6 cells/ml) in DMEM plus BSA; host or cells: Jurkat T-cell line
Method: The CS-1 derived peptide, CLHPGEILDVPST, and the scrambled control peptide, CLHGPIELVSDPT, were synthesized on a Beckman 990 synthesizer using t-Boc methodology. The peptides were immobilized onto microtiter plates using the heterobifunctional crosslinker 3-(2-pyridyldithio)propionic acid N-hydroxysuccinimide ester (SPDP) as reported by Pierschbacher et al., Proc. Natl. Acad. USA, 80:1224-1227 (1983). Microtiter plates were coated with 20 µg/ml HSA for 2 hr. at room temperature, washed once with PBS and derivatized with 10 µg/ml SPDP for 1 hr. After washing, 100 µl of a 100 µg/ml cysteine containing peptide solution which had been recently dissolved was added to the wells and allowed to crosslink to the plates overnight at 4 °C. Unbound peptide was removed from plates by washing with PBS. To block non-reacted sites, the plates are coated with 100 µl of a 2.5 mg/ml BSA solution in PBS for 1 hr. at 37 °C. 100 µl of Jurkat cells (2.5 x 10^6 cells/ml) in DMEM plus BSA (2.5 mg/ml) was mixed with an appropriate concentration of the compound to be tested and the mixture was added to peptide coated dishes and incubated for 1 hr. at 37 °C. Generally 100, 20, 5 and 1.25 µM concentrations of the compound were tested.
Following this incubation the plates were washed once with PBS and the attached cells were fixed with 3% paraformaldehyde in PBS and stained with 0.5% toluidine blue in 3.7% formaldehyde. The cells were stained overnight at room temperature and the optical density at 590 nm of toluidine blue stained cells was determined using a vertical pathway spectrophotometer to quantitate attachment (VMAX Kinetic Microplate Reader, Molecular Devices, Menlo Park, CA). This procedure is a modification of a previously published method (Cardarelli et al, J. Biol. Chem., 269:18668-18673 (1994) and Cardarelli et al, Proc. Natl. Acad. Sci. USA, 83:2647-2651 (1986)).

α4β1 integrin = biological target: T2, α4β1 integrin (Homo sapiens, UniProt P05556+P13612); test: Jurkat-Endothelial Cell Adhesion Assay (Jurkat EC); format: cell-based; details: Jurkat cell adhesion to IL-1 stimulated endothelial cell monolayers
T2 construct: a T-cell line, Jurkat, known to express the α4β1 integrin; host or cells: Jurkat T-cell line
Method: The following assay established the activity of the present compounds in inhibiting β1-mediated cell adhesion in a representative in vitro system. This assay measures the adhesive interactions of a T-cell line, Jurkat, known to express the α4β1 integrin, to endothelial monolayers in the presence of test compounds. The test compounds were added in increasing concentrations to T-cells and then the T-cell compound mixture was added to IL-1 stimulated endothelial cell monolayers. The plates were incubated, washed and the percentage of attached cells was quantitated.
Human umbilical vein endothelial cells were purchased from Clonetics (San Diego, CA.) at passage number 2. The cells were grown on 0.5% porcine skin gelatin pre-coated flasks (Sigma, St. Louis MO.) in EGM-UV media (Clonetics, San Diego, CA) supplemented with 10% fetal bovine serum. Cells are refed every 2-3 days reaching confluence by day 4 to 6. […] The endothelial cells are not used following passage 6.
The T-cell line Jurkat was obtained from American Type Tissue Culture Collection (Rockville, MD) and the cells were cultured in RPMI containing 10 % fetal calf serum. The cells were washed twice in Hank's Balanced Salt Solution (HBSS) and resuspended in Dulbecco's Minimal Eagle's Media (DMEM) containing 2.5 mg/ml Human Serum Albumin (HSA). Jurkat cells (1x10^6 cells/ml) were stained with 10 ng/ml BCECF-AM (Molecular Probes, Eugene, OR)) in HBSS without phenol red. The cells were loaded with BCECF for 60 minutes in the dark at 37°C, washed 2 times, and resuspended in DMEM-HSA solution.
Confluent endothelial monolayers, grown in 96-well tissue culture plates, were stimulated for 4 hr. at 37 °C with 0.1 ng/ml (∼50 U/ml) recombinant IL-1 (Amgen, Thousand Oaks, CA). Following this incubation, the monolayers were washed twice with HBSS and 0.1 ml of DMEM-HSA solution was added. Jurkat cells (5 x 10^5 cells) were combined with the appropriate concentration of the test compound and 0.1 ml of the Jurkat cell-compound mixture was added to the endothelial cell monolayers. Generally, 100, 20, 5 and 1.25 µM compound concentrations were tested. […] Following this incubation, the monolayers were washed twice with PBS containing 1 mM calcium chloride and 1 mM magnesium chloride' and the plates were read using a Millipore Cytofluor 2300 (Marlboro, MA.). Fluorescence in each well was measured as Arbitrary Fluorescence Units and percent adhesion in the absence of compound was adjusted to 100% and the % adhesion in the presence of compound was calculated. Monolayers were also fixed in 3% paraformaldehyde and evaluated microscopically to verify the adhesion. This procedure is a modification of a previously published method (Cardarelli et al., J. Biol. Chem. 269:18668-18673 (1994)).

T1 sequence (P13612 34-1032): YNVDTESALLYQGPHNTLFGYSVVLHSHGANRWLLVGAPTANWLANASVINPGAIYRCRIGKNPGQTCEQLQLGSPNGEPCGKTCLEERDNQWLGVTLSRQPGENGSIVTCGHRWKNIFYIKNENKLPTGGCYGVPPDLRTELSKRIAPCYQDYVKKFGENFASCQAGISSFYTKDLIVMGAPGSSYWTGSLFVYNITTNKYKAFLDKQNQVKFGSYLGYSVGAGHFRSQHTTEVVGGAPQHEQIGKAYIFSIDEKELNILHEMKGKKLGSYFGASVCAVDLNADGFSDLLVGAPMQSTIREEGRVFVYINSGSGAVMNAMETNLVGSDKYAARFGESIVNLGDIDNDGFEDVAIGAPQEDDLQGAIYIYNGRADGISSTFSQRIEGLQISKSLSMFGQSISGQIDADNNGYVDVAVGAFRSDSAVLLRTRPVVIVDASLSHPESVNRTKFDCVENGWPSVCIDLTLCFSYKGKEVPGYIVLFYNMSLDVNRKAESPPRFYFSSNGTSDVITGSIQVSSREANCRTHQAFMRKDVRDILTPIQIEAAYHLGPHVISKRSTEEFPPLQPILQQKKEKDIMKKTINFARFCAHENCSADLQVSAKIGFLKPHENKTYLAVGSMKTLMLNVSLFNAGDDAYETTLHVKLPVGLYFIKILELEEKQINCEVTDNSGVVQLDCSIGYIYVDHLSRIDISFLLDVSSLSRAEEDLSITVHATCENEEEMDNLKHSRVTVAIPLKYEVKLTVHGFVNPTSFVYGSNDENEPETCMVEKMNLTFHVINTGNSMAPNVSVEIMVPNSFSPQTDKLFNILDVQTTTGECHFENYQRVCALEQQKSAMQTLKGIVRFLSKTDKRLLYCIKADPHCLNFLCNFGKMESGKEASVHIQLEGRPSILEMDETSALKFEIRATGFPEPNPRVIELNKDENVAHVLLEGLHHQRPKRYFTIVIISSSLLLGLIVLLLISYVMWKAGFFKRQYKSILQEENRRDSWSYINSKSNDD
T1 sequence (P05556 21-798): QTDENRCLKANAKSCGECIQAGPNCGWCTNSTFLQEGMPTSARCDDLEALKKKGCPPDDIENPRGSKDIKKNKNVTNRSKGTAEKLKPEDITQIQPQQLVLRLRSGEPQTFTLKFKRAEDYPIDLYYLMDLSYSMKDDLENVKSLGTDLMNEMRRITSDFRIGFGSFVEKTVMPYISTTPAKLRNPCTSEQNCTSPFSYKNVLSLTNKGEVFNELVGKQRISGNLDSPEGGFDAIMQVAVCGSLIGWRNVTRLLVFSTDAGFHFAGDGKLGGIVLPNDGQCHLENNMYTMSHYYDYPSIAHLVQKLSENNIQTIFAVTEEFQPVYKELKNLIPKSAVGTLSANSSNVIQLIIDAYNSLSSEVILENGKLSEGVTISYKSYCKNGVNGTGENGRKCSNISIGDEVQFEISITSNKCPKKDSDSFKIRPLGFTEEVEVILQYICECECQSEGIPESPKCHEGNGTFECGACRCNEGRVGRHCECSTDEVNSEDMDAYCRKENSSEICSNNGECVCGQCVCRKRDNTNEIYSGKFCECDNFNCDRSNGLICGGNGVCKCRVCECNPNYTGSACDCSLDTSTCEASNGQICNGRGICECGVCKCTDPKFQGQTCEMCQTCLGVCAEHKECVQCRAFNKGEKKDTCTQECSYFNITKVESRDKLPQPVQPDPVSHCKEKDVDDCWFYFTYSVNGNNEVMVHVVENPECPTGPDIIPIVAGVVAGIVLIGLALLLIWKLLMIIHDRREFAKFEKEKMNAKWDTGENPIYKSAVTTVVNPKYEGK
T2 sequence (P13612 34-1032): as the sequence (P13612 34-1032) above
T2 sequence (P05556 21-798): as the sequence (P05556 21-798) above

O=C(Nc1ccc(C[C@H](NC(=O)N2CCCC(C(=O)O)C2)C(=O)O)cc1)c1c(Cl)cccc1Cl (stereo partly drawn) [Example 115, 1-[[((1S)-1-carboxy-2-[4-[(2,6-dichlorobenzoyl)amino]phenyl]ethyl)amino]carbonyl]-3-piperidinecarboxylic acid]
IC50 (α4β1): 80 to 500 nM
IC50 (α4β1 integrin): 800 to 5000 nM

O=C(O)c1cncc(C(=O)Nc2cccc(C(=O)N[C@@H](Cc3ccc(NC(=O)c4c(Cl)cccc4Cl)cc3)C(=O)O)c2)c1 [Example 44]
IC50 (α4β1): 80 to 500 nM
IC50 (α4β1 integrin): 5000 to 10000 nM

O=C(O)c1ccccc1C(=O)NC1(C(=O)N[C@@H](Cc2ccc(NC(=O)c3c(Cl)cccc3Cl)cc2)C(=O)O)CCCCC1 [Example 56]
IC50 (α4β1): 80 to 500 nM
IC50 (α4β1 integrin): 800 to 5000 nM

CC1(C)[C@@H](CC(=O)N[C@@H](Cc2ccc(NC(=O)c3c(Cl)cccc3Cl)cc2)C(=O)O)C[C@H]1C(=O)O [Example 93, (1R-cis)-N-[(3-Carboxy-2,2-dimethylcyclobutyl)acetyl]-4-[(2,6-dichlorobenzoyl)amino]-L-phenylalanine]
IC50 (α4β1): 80 to 500 nM
IC50 (α4β1 integrin): 800 to 5000 nM

O=C(NC1CCCCC1C(=O)NC(Cc1ccc(NC(=O)c2c(Cl)cccc2Cl)cc1)C(=O)O)c1cc(O)c2ccccc2n1 (stereo not drawn) [Example 82]
IC50 (α4β1): 80 to 500 nM
IC50 (α4β1 integrin): ≤ 800 nM

O=C(Nc1ccc(CC(NC(=O)C2CCCCC2NC(=O)C2CCOC2)C(=O)O)cc1)c1c(Cl)cccc1Cl (stereo not drawn) [Example 87]
IC50 (α4β1): 80 to 500 nM
IC50 (α4β1 integrin): ≤ 800 nM

CC(=O)[C@@H]1C[C@H](C(=O)N[C@@H](Cc2ccc(NC(=O)c3c(Cl)cccc3Cl)cc2)C(=O)O)C1(C)C [Example 97, (1S-cis)-N-[(3-Acetyl-2,2-dimethylcyclobutyl)carbonyl]-4-[(2,6-dichlorobenzoyl)amino)-L-phenylalanine]
IC50 (α4β1): ≤ 80 nM
IC50 (α4β1 integrin): ≤ 800 nM

O=C(Nc1ccc(C[C@H](NC(=O)N2CCCC(C(=O)O)C2)C(=O)O)cc1)c1c(Cl)cccc1Cl (stereo partly drawn) [Example 114, 1-[[[(1S)-1-carboxy-2-[4-[(2,6-dichlorobenzoyl)amino]phenyl]ethyl]amino]carbonyl]-3-piperidinecarboxylic acid]
IC50 (α4β1): 80 to 500 nM
IC50 (α4β1 integrin): ≤ 800 nM

CC(=O)[C@H]1C[C@H](C(=O)N[C@@H](Cc2ccc(NC(=O)c3cccnc3Cl)cc2)C(=O)O)C1(C)C [Example 104, (1S-trans)-N-[(3-Acetyl-2,2-dimethylcyclobutyl)carbonyl]-4-[[(2-chloro-3-pyridinyl)carbonyl]amino]-L-phenylalanine]
IC50 (α4β1): 500 to 1000 nM
IC50 (α4β1 integrin): 800 to 5000 nM

O=C(O)c1cccc(C(=O)NC2(C(=O)N[C@@H](Cc3ccc(NC(=O)c4c(Cl)cccc4Cl)cc3)C(=O)O)CCCCC2)c1 [Example 57]
IC50 (α4β1): 80 to 500 nM
IC50 (α4β1 integrin): ≤ 800 nM

O=C(NC1(C(=O)N[C@@H](Cc2ccc(NC(=O)c3c(Cl)cccc3Cl)cc2)C(=O)O)CC2CCC1C2)c1ccc([N+](=O)[O-])o1 (stereo partly drawn) [Example 76]
IC50 (α4β1): 80 to 500 nM
IC50 (α4β1 integrin): 800 to 5000 nM

O=C(O)c1ccc(C(=O)NC2(C(=O)N[C@@H](Cc3ccc(NC(=O)c4c(Cl)cccc4Cl)cc3)C(=O)O)CCCCC2)nc1 [Example 63]
IC50 (α4β1): 80 to 500 nM
IC50 (α4β1 integrin): ≤ 800 nM

O=C(NC1(C(=O)N[C@@H](Cc2ccc(NC(=O)c3c(Cl)cccc3Cl)cc2)C(=O)O)CCCCC1)c1cc(O)c2ccccc2n1 [Example 64]
IC50 (α4β1): 80 to 500 nM
IC50 (α4β1 integrin): 800 to 5000 nM

O=C(Nc1ccc(CC(NC(=O)C2CCCCC2NC(=O)C2NC(C(=O)O)CS2)C(=O)O)cc1)c1c(Cl)cccc1Cl (stereo not drawn) [Example 84]
IC50 (α4β1): 80 to 500 nM
IC50 (α4β1 integrin): ≤ 800 nM

CC(=O)[C@@H]1C[C@H](C(=O)N[C@@H](Cc2ccc(NC(=O)c3ccc(Cl)nc3Cl)cc2)C(=O)O)C1(C)C [Example 107, (1S-cis)-N-[(3-Acetyl-2,2-dimethylcyclobutyl)carbonyl]-4-[[(2,6-dichloro-3-pyridinyl)carbonyl]amino]-L-phenylalanine]
IC50 (α4β1): 80 to 500 nM
IC50 (α4β1 integrin): 800 to 5000 nM

O=C(O)/C=C/C(=O)Nc1cccc(C(=O)N[C@@H](Cc2ccc(NC(=O)c3c(Cl)cccc3Cl)cc2)C(=O)O)c1 [Example 37]
IC50 (α4β1): 500 to 1000 nM
IC50 (α4β1 integrin): 5000 to 10000 nM

CC(=O)[C@@H]1C[C@H](CC(=O)N[C@@H](Cc2ccc(NC(=O)c3c(Cl)cccc3Cl)cc2)C(=O)O)C1(C)C [Example 91, (1R-cis)-N-[(3-Acetyl-2,2-dimethylcyclobutyl)acetyl]-4-[(2,6-dichlorobenzoyl)amino]-L-phenylalanine]
IC50 (α4β1): 500 to 1000 nM
IC50 (α4β1 integrin): 800 to 5000 nM

O=C(Nc1ccc(C[C@H](NC(=O)C2(NC(=O)C3NC(C(=O)O)CS3)CCCCC2)C(=O)O)cc1)c1c(Cl)cccc1Cl (stereo partly drawn) [Example 66]
IC50 (α4β1): 80 to 500 nM
IC50 (α4β1 integrin): ≤ 800 nM

O=C(NC1(C(=O)N[C@@H](Cc2ccc(NC(=O)c3c(Cl)cccc3Cl)cc2)C(=O)O)CCCCC1)c1cc(C(=O)O)[nH]n1 [Example 65]
IC50 (α4β1): 80 to 500 nM
IC50 (α4β1 integrin): 800 to 5000 nM

O=C(O)/C=C\C(=O)Nc1cccc(C(=O)N[C@@H](Cc2ccc(NC(=O)c3c(Cl)cccc3Cl)cc2)C(=O)O)c1 [Example 36]
IC50 (α4β1): 500 to 1000 nM
IC50 (α4β1 integrin): 800 to 5000 nM

CC(O)[C@H]1C[C@@H](CC(=O)N[C@@H](Cc2ccc(NC(=O)c3c(Cl)cccc3Cl)cc2)C(=O)O)C1(C)C (stereo partly drawn) [Example 89, [1S-(1α,3α)]-4-[(2,6-Dichlorobenzoyl)amino]-N-[[3-(1-hydroxyethyl)-2,2-dimethylcyclobutyl]acetyl]-L-phenylalanine]
IC50 (α4β1): 500 to 1000 nM
IC50 (α4β1 integrin): 5000 to 10000 nM

O=C(NC1(C(=O)N[C@@H](Cc2ccc(NC(=O)c3c(Cl)cccc3Cl)cc2)C(=O)O)CC2CCC1C2)c1cc(C(=O)O)[nH]n1 (stereo partly drawn) [Example 74]
IC50 (α4β1): 80 to 500 nM
IC50 (α4β1 integrin): 800 to 5000 nM

COCCC(=O)NC1(C(=O)N[C@@H](Cc2ccc(NC(=O)c3c(Cl)cccc3Cl)cc2)C(=O)O)CCCCC1 [Example 51]
IC50 (α4β1): ≤ 80 nM
IC50 (α4β1 integrin): 800 to 5000 nM

O=C(O)/C=C1/CCCc2c(C(=O)N[C@@H](Cc3ccc(NC(=O)c4c(Cl)cccc4Cl)cc3)C(=O)O)cccc21 [Example 131, N-[[(5Z)-5-Carboxymethylene-7,8-dihydro-1(6H)-naphthyl]carbonyl]-4-[(2,6-dichlorobenzoyl)amino]-L-phenylalanine]
IC50 (α4β1): ≤ 80 nM
IC50 (α4β1 integrin): ≤ 800 nM

CC(C)(CC(=O)O)CC(=O)NC1(C(=O)N[C@@H](Cc2ccc(NC(=O)c3c(Cl)cccc3Cl)cc2)C(=O)O)CCCCC1 [Example 48]
IC50 (α4β1): 80 to 500 nM
IC50 (α4β1 integrin): 800 to 5000 nM

O=C(NC1(C(=O)N[C@@H](Cc2ccc(NC(=O)c3c(Cl)cccc3Cl)cc2)C(=O)O)CC2CCC1C2)c1cccnc1 (stereo partly drawn) [Example 70]
IC50 (α4β1): 80 to 500 nM
IC50 (α4β1 integrin): 800 to 5000 nM

O=C(O)/C=C1\CCCc2c(C(=O)N[C@@H](Cc3ccc(NC(=O)c4c(Cl)cccc4Cl)cc3)C(=O)O)cccc21 [Example 134, N-[[(5E)-5-Carboxymethylene-7,8-dihydro-1(6H)-naphthyl]carbonyl]-4-[(2,6-dichlorobenzoyl)amino]-L-phenylalanine]
IC50 (α4β1): 80 to 500 nM
IC50 (α4β1 integrin): ≤ 800 nM
